Results published in patent US20240287089A1, “Preparation and Uses of 7-Azaindenoisoquinolines” (Purdue Research Foundation, priority 0001, published 2024).

Tested on: MYC mRNA in MCF-7 breast cancer cells
Assay: qRT-PCR of MYC mRNA
Type: cell-based
Settings: MCF-7, 1.0 μM, 6 h
Description: Quantitative Reverse Transcriptase PCR (qRT-PCR). MCF-7 cells were grown and treated in 12-well tissue culture plates until collection. Total RNA was extracted using TRIzol reagent (15596018, Life Technologies). Purified RNA was dissolved in DEPC water and quantified. 1 μg purified RNA per sample was converted to cDNA using qScript cDNA SuperMix (84034, Quantabio) according to manufacturer's instruction. Real-time PCR reagents were made for each sample by mixing 1 μL synthesized cDNA, 3 μL PCR-grade water, 5 μL SYBR Green reagent (A25742, Applied Biosystem), and 0.25 μL each primer for Myc and GAPDH. Reactions were set up in triplicate for each target of each sample. Real-time PCR was conducted in 96-well PCR plates with a QuantStudio 6 Flex Real-Time PCR System (Life Technologies). The cycling condition was 95° C. for 5 min, followed by 40 cycles at 95° C. for 15 s, 60° C. for 15 s, and 72° C. for 15 s. The relative Myc expression was calculated using the 2^−ΔΔCt method by normalizing against GAPDH as the endogenous control.

## COc1cc2c3c(n(CCCNCCO)c(=O)c2cc1OC)-c1nc2c(cc1C3=O)OCO2 [G105, 6-(3-((2-Hydroxyethyl)amino)propyl)-2,3-dimethoxy-5H-[1,3]dioxolo[4″,5″:5′,6′]pyrido[3′,2′:4,5]cyclopenta[1,2-c]isoquinoline-5,12(6H)-dione]
  MYC mRNA level: significantly lowered MYC mRNA levels
